This is an account of results in patent publication US20160176924A1, “MODIFIED PEPTIDES AS POTENT INHIBITORS OF THE PSD-95/NMDA RECEPTOR INTERACTION” (priority 2008, published 2016).

A short description of data set [1]: Human blood plasma stability assay. In kind it is in vitro ADME. How it is done:
In this assay, the half-life (T1/2) of a compound in blood plasma is measured in vitro, whereby its susceptibility to degradation by proteases, peptidases and general plasma contents is quantified.
Compounds of interest were dissolved in human blood plasma (270 μl; 3H Biomedical, Sweden, cat no 1300-1-P50) to a concentration of 0.25 mM (30 μL of 2.5 mM) and incubated at 37° C. Aliquots (30 μl) were removed at various time intervals (0, 5, 10, 20, 40, 80, 160, 320, 960, 1280, 2550, 4560 and 7240 min) and quenched with 60 μL trichloroacetic acid (aq., 5%). The aliquots were vortexed, and incubated for at least 15 min, at 4° C. prior to centrifugation at 18,000 g for 2 min and the supernatant was analyzed by RP-HPLC to quantify the remaining compound (absorbance at 218 nm).

Data set [2] concerns the target T1, PDZ1-2 tandem of PSD-95 (Homo sapiens, UniProt P78352).
T1 construct: PDZ1-2 (residues 61-249) tandem; made in house; host or cells: E. coli BL21-DE3 pLysS
Kind of data set: FP heterologous competition binding assay. Particulars: mean ± SEM. An excerpt: (§1) Determined IC50 values may be converted to Ki values.^5 Suitable fluorophores include either 5-FAM or Cy5, which may be coupled to a tripeptide (KSG or CSG) linker attached to the N-terminus of the undecapeptide, to give 5-FAM-NR2B, Cy5-NR2B, 5-FAM-CRIPT and Cy5-CRIPT. The 5-FAM fluorophore may be attached to the undecapeptides by coupling with HATU. The Cy5 fluorophore may be conjugated to the undecapeptides by coupling Cy5-maleimide to the cysteine side chain of the tripeptide sequence CSG attached to the N-terminus of the peptide, as detailed in the Methodology section.
(§2) To measure the affinities between non-fluorescent peptides and PDZ domains, heterologous competition bindings assay were performed. This was done by adding increasing concentrations of peptide to a fixed concentration of Cy5-NR2B, 5-FAM-NR2B, Cy5-CRIPT or 5-FAM-CRIPT (50 nM) and PDZ (20 μM for PDZ1, 3 μM for PDZ2 and 1-2 and 5 μM for PDZ3) in the same TBS buffer and conditions as described above. FP values were then fitted to the general equation: Y=Bottom+(Top−Bottom)/[1[…](10̂^X-logIC50)], where X is the logarithmic value of peptide concentration. Hereby the IC50 value was obtained, which is used to calculate the theoretical competitive inhibition constant, Ki.^5
(§3) A convenient and reliable way to examine interactions between peptide analogues and PDZ domains is by using a fluorescence polarization (FP) assay. The three PDZ domains, PDZ1-3, of PSD-95 were expressed individually as set out above, while PDZ1-2 was also expressed as a tandem construct. […] IC50 values were then converted to Ki values.^5

In data set [3] the target is T2, PDZ2 of PSD-95 (Homo sapiens, UniProt P78352).
T2 construct: PDZ2 (residues 155-249); made in house; host or cells: E. coli BL21-DE3 pLysS
Kind of data set: FP heterologous competition binding assay. Particulars: for Ki: FP competition, mean ± SEM, NA = no activity/affinity.
Excerpt: as §1, §2, §3

Data set [4] deals with T3, PDZ1 of PSD-95 (Homo sapiens, UniProt P78352).
T3 construct: PSD-95 PDZ1 (residues 61-151); made in house; host or cells: E. coli BL21-DE3 pLysS
Kind of data set: FP heterologous competition binding assay. Particulars: for Ki: FP competition, mean ± SEM, NA = no activity/affinity.
Excerpt: as §1, §2, §3

Data set [5] addresses T4, PDZ3 of PSD-95 (Homo sapiens, UniProt P78352).
T4 construct: PDZ3 (residues 309-401); made in house; host or cells: E. coli BL21-DE3 pLysS
Kind of data set: FP heterologous competition binding assay. Particulars: FP competition; mean ± SEM; NA = no activity/affinity.
Excerpt: as §1, §2, §3

Where [6] appears, read: human, plasma, Blood plasma half life (T1/2).

Where two headings read alike, the source gives them in different places. Numbered stars: 1 amine (or outer) side, 2 acyl side, 3 side chain; on linkers, the order of the positions; unused ones are H or OH. Bridge positions count the residues as written; N and C are the ends. Square brackets hold non-standard residues; d marks the D form. Ends that are not written are not given here. Peptide text beside a SMILES is read from it. I, II: the chains in the order shown. CO(CH2CH2O)13CH2CH2CO = O=C(CCOCCOCCOCCOCCOCCOCCOCCOCCOCCOCCOCCOCCOCCC(=O)[*:2])[*:1]; NMeE = CN[C@@H](CCC(=O)O)C(=O)O

Turning to “YGRKKRRQRRRKLSSIESDV [Tat-NR2B (3), reference compound]”, the half-life at […] in data set [1] (human blood plasma, 37° C., 0.25 mM, read-out: Blood plasma half life (T1/2)) was 24.5 h.

Consider `CC[C@H](C)[C@H](NC(=O)CCOCCOCCOCCOCCOCCC(=O)N[C@H](C(=O)N[C@@H](C)C(=O)N[C@H](C(=O)N[C@@H](C)C(=O)N[C@H](C(=O)O)C(C)C)[C@@H](C)O)[C@@H](C)CC)C(=O)N[C@@H](C)C(=O)N[C@H](C(=O)N[C@@H](C)C(=O)N[C@H](C(=O)O)C(C)C)[C@@H](C)O` [(IATAV)2PEG4 (88), (IATAV)2PEG4], for which the figures for the Ki in data set [2] and in data set [3] were 1.1 ± 0.07 µM and 25 ± 0.88 µM, respectively. In data set [1] (setting [6]), this compound displayed a half-life at […] of 2.05 h.

Turning to `CC(C)[C@H](NC(=O)[C@H](C)NC(=O)[C@@H](NC(=O)[C@H](CCC(=O)O)NCCCc1ccccc1)C(C)O)C(=O)O` (some centres unmarked) [Compound 60, N-Phenylpropyl-ETAV], the Ki – broadly, the equilibrium dissociation constant of an inhibitor or competing ligand from its target – in data set [4] was found to be 2.1 ± 0.35 µM; in data set [3] it was 3.1 ± 0.31 µM.

Consider `CC(C)[C@H](NC(=O)[C@H](CC(=O)O)NC(=O)[C@H](CO)NC(=O)[C@H](CCC(=O)O)NC(=O)CCOCCOCCOCCOCCOCCOCCOCCOCCOCCOCCOCCOCCOCCC(=O)N[C@@H](CCC(=O)O)C(=O)N[C@@H](CO)C(=O)N[C@@H](CC(=O)O)C(=O)N[C@H](C(=O)O)C(C)C)C(=O)O` [Compound 84] (I: ESDV-OH / II: ESDV-OH; linker I:N-II:N via CO(CH2CH2O)13CH2CH2CO; C-terminus assumed), for which the Ki in data set [3] amounted to 22 ± 0.18 µM.

Regarding `CC[C@H](C)[C@H](NC(=O)CCOCCOCCOCCOCCOCCOCCOCCOCCOCCOCCOCCOCCOCCC(=O)N[C@H](C(=O)N[C@@H](C)C(=O)N[C@H](C(=O)N[C@@H](C)C(=O)N[C@H](C(=O)O)C(C)C)[C@@H](C)O)[C@@H](C)CC)C(=O)N[C@@H](C)C(=O)N[C@H](C(=O)N[C@@H](C)C(=O)N[C@H](C(=O)O)C(C)C)[C@@H](C)O` [(IATAV)2PEG12 (87), (IATAV)2PEG12], the inhibition constant Ki in data set [2] stood at 1 ± 0.06 µM; in data set [3], 13 ± 1.1 µM. For the same compound, the half-life at […] in data set [1] (setting [6]) was 3.05 h.

Take `CC(C)[C@H](NC(=O)[C@H](C)NC(=O)[C@@H](NC(=O)[C@H](CCC(N)=O)NCCC1CCCCC1)[C@@H](C)O)C(=O)O` [QTAV (72)]: in data set [4], the Ki worked out at 21 ± 1.1 µM.

For `CC[C@H](C)[C@H](N)C(=O)N[C@@H](C)C(=O)N[C@H](C(=O)N(C)[C@@H](C)C(=O)N[C@H](C(=O)O)C(C)C)[C@@H](C)O` [IATAMeV (89), IATAMeV], in data set [1] (setting [6]), the half-life at […] amounted to 0.533 h.

Turning to `CC(C)[C@H](NC(=O)[C@H](C)NC(=O)[C@@H](N)[C@@H](C)O)C(=O)O` [TAV (49), TAV] (H-Thr-Ala-Val-OH; N-terminus and C-terminus assumed), in data set [4], the “fold increase in Ki (loss of affinity) compared to NR2B peptide (1), PDZ1” value was “ca. 2 fold” and the Ki is 42 µM. Moreover, in data set [3], the “fold increase in Ki (loss of affinity) compared to NR2B peptide (1), PDZ2” value was approximately 9 fold and the Ki stood at 37 µM.

On to EMeTQV ([NMeE]TQV) [Compound 39], for which, in data set [4], the “fold increase in affinity (more potent) compared to NR2B peptide (1), PDZ1” value is recorded as “ca. 3 fold”. Also, in data set [3] (FP assay), the “affinity to PDZ2, in words” value is given as “only slightly less potent”.

Consider `CC(C)[C@H](NC(=O)[C@H](CC(=O)O)NC(=O)[C@H](CO)NC(=O)[C@@H](N)CCC(=O)O)C(=O)O` [ESDV (8), ESDV] (H-ESDV-OH; N-terminus and C-terminus assumed), for which the “fold increase in Ki (loss of affinity) compared to NR2B peptide (1), PDZ1” value in data set [4] turned out to be 3.1 fold. In addition, the Ki in data set [4] was 56 ± 2.4 µM; in data set [2] it was 28 ± 2.9 µM; in data set [3] it was 28 ± 0.92 µM. In addition, the “fold increase in Ki (loss of affinity) compared to NR2B peptide (1), PDZ2” value in data set [3] turned out to be 6.8 fold.

Consider `CC[C@H](C)[C@H](NC(=O)CCOCCOCCOCCOCCOCCOCCOCCC(=O)N[C@H](C(=O)N[C@@H](CCC(=O)O)C(=O)N[C@@H](CO)C(=O)N[C@@H](CC(=O)O)C(=O)N[C@H](C(=O)O)C(C)C)[C@@H](C)CC)C(=O)N[C@@H](CCC(=O)O)C(=O)N[C@@H](CO)C(=O)N[C@@H](CC(=O)O)C(=O)N[C@H](C(=O)O)C(C)C` [(IESDV)2PEG6 (77), (IESDV)2PEG6], for which the Ki in data set [2] is approximately 0.1 µM. Also, in data set [1], the “degradation in human blood plasma, in words” value is reported as “no significant degradation could be detected over a time period of 6 days”. The compound also gave a half-life at […] in data set [1] (setting [6]) of more than 133 h.

As to `CC(C)[C@H](NC(=O)[C@H](C)NC(=O)[C@@H](NC(=O)[C@H](CCC(=O)O)NCC1CCCCC1)C(C)O)C(=O)O` (some centres unmarked) [Compound 55, N-Cyclohexylmethyl-ETAV], in data set [4], the “fold increase in affinity (more potent) compared to NR2B peptide (1), PDZ1” value is listed as “ca. 19 fold” and the Ki was determined as 1 ± 0.24 µM. Further, the Ki in data set [5] was 21 ± 0.64 µM.
